Values of other authors in article PMC8781256, “The Influence of Fed State Lipolysis Inhibition on the Intraluminal Behaviour and Absorption of Fenofibrate from a Lipid-Based Formulation” (Pharmaceutics, 2022).

Experiments:
[1] = test system: human pancreatic lipase (HPL); design: method as in PMID 11408251; conditions: after intake of solid and liquid meals
[2] = design: method as in PMID 8626884; conditions: acts locally in the GI tract
[3] = test system: human gastric lipase (HGL); design: method as in PMID 11408251; conditions: after intake of solid and liquid meals

| SMILES | log P | HPL enzyme inhibition [1] | systemic uptake [2] | HGL enzyme inhibition [3] |
| --- | --- | --- | --- | --- |
| CC(C)OC(=O)C(C)(C)Oc1ccc(C(=O)c2ccc(Cl)cc2)cc1 [fenofibrate] | 5.21 | – | – | – |
| CCCCCCCCCCC[C@@H](C[C@@H]1OC(=O)[C@H]1CCCCCC)OC(=O)[C@H](CC(C)C)NC=O [orlistat, tetrahydrolipstatin] | – | 51.2–82.6% | negligible | 46.6–91.4% |
